One data set deals with T1, GC receptor (Homo sapiens, UniProt P47871).
T1 construct: expressed in transfected cells; host or cells: HEK293 cells
The experiment in a line: GC receptor mediated cAMP production in vitro (HEK293 cells transfected with GC receptor). The conditions noted are these: 20 min at 37° C., read-out: GCGR (nM EC50). In kind it is cell-based. The text has this: The medium was removed, the cells were lysed, and cAMP values were detected referring to the detection method described for the assay kit.
(Changes in cAMP serve as a functional read-out for many G protein-coupled receptors.)

The next data set is described as follows: physchem. The conditions noted are these: pH 7.5, Solubility. The format is physicochemical.

As usually defined, the EC50 is the concentration that produces a half-maximal response. In general, solubility refers to how much of the substance goes into solution per volume.

SMILES strings stand for the structures. Numbered stars: 1 amine (or outer) side, 2 acyl side, 3 side chain; on linkers, the order of the positions; unused ones are H or OH. Square brackets hold non-standard residues; d marks the D form. Side chains are listed from the residue outwards. Peptide text beside a SMILES is read from it. * marks the point of attachment. C20 diacid = O=C(O)CCCCCCCCCCCCCCCCCCC(=O)*; C18 diacid = O=C(O)CCCCCCCCCCCCCCCCC(=O)*; γGlu = O=C(O)[C@H](CCC(=O)[*:2])N[*:1]; AEEA = NCCOCCOCC(=O)O; Aib = CC(C)(N)C(=O)O Bounds are passed on as bounds.
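Throughout, for Solubility: compound added at 2 mg per mL of phosphate buffer, with the dissolved amount determined in the supernatant.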

T1 sequence (P47871 26-477): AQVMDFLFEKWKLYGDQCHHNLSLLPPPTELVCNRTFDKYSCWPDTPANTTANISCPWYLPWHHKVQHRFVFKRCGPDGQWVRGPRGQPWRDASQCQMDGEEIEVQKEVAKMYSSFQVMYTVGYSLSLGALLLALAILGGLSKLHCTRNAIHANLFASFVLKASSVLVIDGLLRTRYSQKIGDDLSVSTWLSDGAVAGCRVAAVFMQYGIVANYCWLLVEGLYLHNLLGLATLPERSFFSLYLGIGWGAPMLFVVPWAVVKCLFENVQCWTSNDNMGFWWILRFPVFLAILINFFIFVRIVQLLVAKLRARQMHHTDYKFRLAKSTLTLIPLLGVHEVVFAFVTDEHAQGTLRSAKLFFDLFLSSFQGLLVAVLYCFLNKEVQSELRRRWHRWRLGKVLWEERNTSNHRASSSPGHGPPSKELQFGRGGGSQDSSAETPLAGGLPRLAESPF

As to `CC[C@H](C)[C@H](NC(=O)[C@H](Cc1ccccc1)NC(=O)[C@H](CCC(=O)O)NC(=O)[C@H](CCCCNC(=O)COCCOCCNC(=O)COCCOCCNC(=O)CC[C@H](NC(=O)CCCCCCCCCCCCCCCCCCC(=O)O)C(=O)O)NC(=O)[C@H](C)NC(=O)[C@H](CCCCN)NC(=O)[C@H](CCCNC(=N)N)NC(=O)[C@H](CCC(=O)O)NC(=O)[C@H](CCC(=O)O)NC(=O)[C@H](CC(C)C)NC(=O)[C@H](Cc1ccc(O)cc1)NC(=O)[C@H](CCCCN)NC(=O)[C@H](CO)NC(=O)[C@H](Cc1ccc(O)cc1)NC(=O)[C@H](CC(=O)O)NC(=O)[C@H](CO)NC(=O)[C@@H](NC(=O)[C@H](Cc1ccccc1)NC(=O)[C@@H](NC(=O)CNC(=O)[C@H](CCC(N)=O)NC(=O)C(C)(C)NC(=O)[C@@H](N)Cc1c[nH]cn1)[C@@H](C)O)[C@@H](C)O)C(=O)N[C@@H](C)C(=O)N[C@@H](Cc1c[nH]c2ccccc12)C(=O)N[C@@H](CC(C)C)C(=O)N[C@@H](CCC(=O)O)C(=O)NCC(=O)NCC(=O)N1CCC[C@H]1C(=O)N[C@@H](CO)C(=O)N[C@@H](CO)C(=O)NCC(N)=O` [Compound 68] (H-H[Aib]QGTFTSDYSKYLEERKAK([AEEA-AEEA-γGlu-C20 diacid])EFIAWLEGGPSSG-NH2; N-terminus assumed), at GC receptor, the 50% effective concentration (EC50) came out at 0.314 nM.
`CC(C)C[C@H](NC(=O)[C@H](Cc1c[nH]c2ccccc12)NC(=O)[C@H](C)NC(=O)[C@@H](NC(=O)[C@H](Cc1ccccc1)NC(=O)[C@H](CCC(=O)O)NC(=O)[C@H](CCCCN)NC(=O)[C@H](C)NC(=O)[C@H](C)NC(=O)[C@H](CCCNC(=N)N)NC(=O)[C@H](CCC(=O)O)NC(=O)[C@H](CC(=O)O)NC(=O)[C@H](CC(C)C)NC(=O)[C@H](Cc1ccc(O)cc1)NC(=O)[C@H](CCCCN)NC(=O)[C@H](CO)NC(=O)[C@H](CCCCNC(=O)COCCOCCNC(=O)COCCOCCNC(=O)CC[C@H](NC(=O)CCCCCCCCCCCCCCCCC(=O)O)C(=O)O)NC(=O)[C@H](CC(=O)O)NC(=O)[C@H](CO)NC(=O)[C@@H](NC(=O)[C@H](Cc1ccccc1)NC(=O)[C@@H](NC(=O)CNC(=O)[C@H](CCC(N)=O)NC(=O)C(C)(C)NC(=O)[C@@H](N)Cc1c[nH]cn1)[C@@H](C)O)[C@@H](C)O)C(C)C)C(=O)N[C@@H](CCC(=O)O)C(=O)N[C@@H](C)C(=O)NCC(=O)NCC(=O)N1CCC[C@H]1C(=O)N[C@@H](CO)C(=O)N[C@@H](CO)C(=O)NCC(N)=O` [Compound 24] (H-H[Aib]QGTFTSDK([AEEA-AEEA-γGlu-C18 diacid])SKYLDERAAKEFVAWLEAGGPSSG-NH2): the solubility was over 2000 µg/mL in “physchem” (pH 7.5, 10 mM phosphate buffer) and over 2000 µg/mL in “physchem” (pH 7.5, 20 mM phosphate buffer).
Take `CC(C)C[C@H](NC(=O)[C@H](Cc1c[nH]c2ccccc12)NC(=O)[C@H](CCC(=O)O)NC(=O)[C@@H](NC(=O)[C@H](Cc1ccccc1)NC(=O)[C@H](CCC(=O)O)NC(=O)[C@H](CCCCNC(=O)COCCOCCNC(=O)COCCOCCNC(=O)CC[C@H](NC(=O)CCCCCCCCCCCCCCCCC(=O)O)C(=O)O)NC(=O)[C@H](C)NC(=O)[C@H](C)NC(=O)[C@H](CCCNC(=N)N)NC(=O)[C@H](CCC(=O)O)NC(=O)[C@H](CCC(=O)O)NC(=O)[C@H](CC(C)C)NC(=O)[C@H](Cc1ccc(O)cc1)NC(=O)[C@H](CCCCN)NC(=O)[C@H](CO)NC(=O)[C@H](Cc1ccc(O)cc1)NC(=O)[C@H](CC(=O)O)NC(=O)[C@H](CO)NC(=O)[C@@H](NC(=O)[C@H](Cc1ccccc1)NC(=O)[C@@H](NC(=O)CNC(=O)[C@H](CCC(N)=O)NC(=O)C(C)(C)NC(=O)[C@@H](N)Cc1c[nH]cn1)[C@@H](C)O)[C@@H](C)O)C(C)C)C(=O)N[C@@H](CCC(=O)O)C(=O)NCC(=O)NCC(=O)N1CCC[C@H]1C(=O)N[C@@H](CO)C(=O)N[C@@H](CO)C(=O)NCC(N)=O` [Compound 32] (H-H[Aib]QGTFTSDYSKYLEERAAK([AEEA-AEEA-γGlu-C18 diacid])EFVEWLEGGPSSG-NH2; N-terminus assumed): the EC50 on GC receptor worked out at 0.077 nM.
In the case of `CCCCCCCCCCCCCCCC(=O)N[C@@H](CCC(=O)N[C@@H](CCC(=O)NCCCC[C@H](NC(=O)[C@H](CC(=O)O)NC(=O)[C@H](CO)NC(=O)[C@@H](NC(=O)[C@H](Cc1ccccc1)NC(=O)[C@@H](NC(=O)CNC(=O)[C@H](CCC(N)=O)NC(=O)C(C)(C)NC(=O)[C@@H](N)Cc1c[nH]cn1)[C@@H](C)O)[C@@H](C)O)C(=O)N[C@@H](CO)C(=O)N[C@@H](CCCCN)C(=O)N[C@@H](Cc1ccc(O)cc1)C(=O)N[C@@H](CC(C)C)C(=O)N[C@@H](CCC(=O)O)C(=O)N[C@@H](CCC(=O)O)C(=O)N[C@@H](CCCCN)C(=O)N[C@@H](CCCNC(=N)N)C(=O)N[C@@H](C)C(=O)N[C@@H](CCCCN)C(=O)N[C@@H](CCC(=O)O)C(=O)N[C@@H](Cc1ccccc1)C(=O)N[C@H](C(=O)N[C@@H](CCC(=O)O)C(=O)N[C@@H](Cc1c[nH]c2ccccc12)C(=O)N[C@@H](CC(C)C)C(=O)N[C@@H](CCC(=O)O)C(=O)N[C@@H](C)C(=O)NCC(=O)NCC(=O)N1CCC[C@H]1C(=O)N[C@@H](CO)C(=O)N[C@@H](CO)C(=O)NCC(N)=O)[C@@H](C)CC)C(=O)O)C(=O)O` [Compound 11] (HELM PEPTIDE1{H.[Aib].Q.G.T.F.T.S.D.K.S.K.Y.L.E.E.K.R.A.K.E.F.I.E.W.L.E.A.G.G.P.S.S.G.[am]}|PEPTIDE2{[CCCCCCCCCCCCCCCC(=O)[*:2]].[gGlu].[gGlu]}$PEPTIDE1,PEPTIDE2,10:R3-3:R2$$$V2.0; N-terminus assumed), the EC50 on GC receptor was found to be 1.73 nM.
On to `CC[C@H](C)[C@H](NC(=O)[C@H](Cc1ccccc1)NC(=O)[C@H](CCC(=O)O)NC(=O)[C@H](CCCCNC(=O)COCCOCCNC(=O)COCCOCCNC(=O)CC[C@H](NC(=O)CCCCCCCCCCCCCCCCC(=O)O)C(=O)O)NC(=O)[C@H](C)NC(=O)[C@H](CCCNC(=N)N)NC(=O)[C@H](CCCCN)NC(=O)[C@H](CCC(=O)O)NC(=O)[C@H](CC(=O)O)NC(=O)[C@H](CC(C)C)NC(=O)[C@H](Cc1ccc(O)cc1)NC(=O)[C@H](CCCCN)NC(=O)[C@H](CO)NC(=O)[C@H](Cc1ccc(O)cc1)NC(=O)[C@H](CC(=O)O)NC(=O)[C@H](CO)NC(=O)[C@@H](NC(=O)[C@H](Cc1ccccc1)NC(=O)[C@@H](NC(=O)CNC(=O)[C@H](CCC(N)=O)NC(=O)C(C)(C)NC(=O)[C@@H](N)Cc1c[nH]cn1)[C@@H](C)O)[C@@H](C)O)C(=O)N[C@@H](C)C(=O)N[C@@H](Cc1c[nH]c2ccccc12)C(=O)N[C@@H](CC(C)C)C(=O)N[C@@H](CCC(=O)O)C(=O)N[C@@H](C)C(=O)NCC(=O)NCC(=O)N1CCC[C@H]1C(=O)N[C@@H](CO)C(=O)N[C@@H](CO)C(=O)NCC(N)=O` [Compound 50] (H-H[Aib]QGTFTSDYSKYLDEKRAK([AEEA-AEEA-γGlu-C18 diacid])EFIAWLEAGGPSSG-NH2; N-terminus assumed), for which the EC50 on GC receptor amounted to 0.048 nM.
`CC(C)C[C@H](NC(=O)[C@H](Cc1c[nH]c2ccccc12)NC(=O)[C@H](C)NC(=O)[C@@H](NC(=O)[C@H](Cc1ccccc1)NC(=O)[C@H](CCC(=O)O)NC(=O)[C@H](CCCCNC(=O)COCCOCCNC(=O)COCCOCCNC(=O)CC[C@H](NC(=O)CCCCCCCCCCCCCCCCC(=O)O)C(=O)O)NC(=O)[C@H](C)NC(=O)[C@H](CCCNC(=N)N)NC(=O)[C@H](CCCCN)NC(=O)[C@H](CCC(=O)O)NC(=O)[C@H](CCC(=O)O)NC(=O)[C@H](CC(C)C)NC(=O)[C@H](Cc1ccc(O)cc1)NC(=O)[C@H](CCCCN)NC(=O)[C@H](CO)NC(=O)[C@H](Cc1ccc(O)cc1)NC(=O)[C@H](CC(=O)O)NC(=O)[C@H](CO)NC(=O)[C@@H](NC(=O)[C@H](Cc1ccccc1)NC(=O)[C@@H](NC(=O)CNC(=O)[C@H](CCC(N)=O)NC(=O)C(C)(C)NC(=O)[C@@H](N)Cc1c[nH]cn1)[C@@H](C)O)[C@@H](C)O)C(C)C)C(=O)N[C@@H](CCC(=O)O)C(=O)N[C@@H](C)C(=O)NCC(=O)NCC(=O)N1CCC[C@H]1C(=O)N[C@@H](CO)C(=O)N[C@@H](CO)C(=O)NCC(N)=O` [Compound 53] (H-H[Aib]QGTFTSDYSKYLEEKRAK([AEEA-AEEA-γGlu-C18 diacid])EFVAWLEAGGPSSG-NH2; N-terminus assumed): at GC receptor, the EC50 worked out at 0.316 nM.
Turning to `CC[C@H](C)[C@H](NC(=O)[C@H](Cc1ccccc1)NC(=O)[C@H](CCC(=O)O)NC(=O)[C@H](CCCCN)NC(=O)[C@H](C)NC(=O)[C@H](CCCNC(=N)N)NC(=O)[C@H](CCCCN)NC(=O)[C@H](CCC(=O)O)NC(=O)[C@H](CC(=O)O)NC(=O)[C@H](CC(C)C)NC(=O)[C@H](Cc1ccc(O)cc1)NC(=O)[C@H](CCCCN)NC(=O)[C@H](CO)NC(=O)[C@H](CCCCNC(=O)COCCOCCNC(=O)COCCOCCNC(=O)CC[C@H](NC(=O)CCCCCCCCCCCCCCCCC(=O)O)C(=O)O)NC(=O)[C@H](CC(=O)O)NC(=O)[C@H](CO)NC(=O)[C@@H](NC(=O)[C@H](Cc1ccccc1)NC(=O)[C@@H](NC(=O)CNC(=O)[C@H](CCC(N)=O)NC(=O)C(C)(C)NC(=O)[C@@H](N)Cc1c[nH]cn1)[C@@H](C)O)[C@@H](C)O)C(=O)N[C@@H](CCC(=O)O)C(=O)N[C@@H](Cc1c[nH]c2ccccc12)C(=O)N[C@@H](CC(C)C)C(=O)N[C@@H](CCC(=O)O)C(=O)N[C@@H](C)C(=O)NCC(=O)NCC(=O)N1CCC[C@H]1C(=O)N[C@@H](CO)C(=O)N[C@@H](CO)C(=O)NCC(N)=O` [Compound 23] (H-H[Aib]QGTFTSDK([AEEA-AEEA-γGlu-C18 diacid])SKYLDEKRAKEFIEWLEAGGPSSG-NH2; N-terminus assumed), the EC50 at GC receptor was found to be 0.329 nM.

The values are drawn from US12257287B2, “Glucagon-derived peptide and use thereof” (Tianjin Institute of Pharmaceutical Research Co., Ltd., priority 2018, dated 2025).
